Data: patent US8636979B2, “TLR 4 and 9 receptors agonists for preventing septic complications of post-traumatic immunodepression in patients hospitalized for severe traumatic injuries” (Chu Nantes, priority 2009, dated 2014)

System: methicillin-sensitive Staphyloccocus aureus (MSSA) pneumonia after haemorrhagic shock
Experiment: Mortality from MSSA pneumonia after haemorrhagic shock (post-haemorrhagic SI model)
Assay type: in vivo
Settings: Balb/cJ mice; i.v. injection immediately after resuscitation from haemorrhagic shock; 7×10^6 CFU MSSA 24 h later; survival followed 7 days
Procedure: An intra-venous injection of CpG-ODN 1668 (100 μl to […]) (HP-CpG group) or the same volume of isotonic saline solution (HP group) was given immediately after resuscitation from haemorrhagic shock. Twenty-four hours later the mice were inoculated with 7×10^6 CFU of MSSA. The survival rate of each group was measured twice a day for 7 days (168 hours). Each group comprised 8 animals. Data are given as a percentage and are representative of three independent experiments each having the same statistical significance (*p≦0.05). HP Group (black diamonds), HP-CpG group (blank squares).
Male Balb/cJ mice (20-24 grams) were obtained from the Janvier breeding company (Laval, France). Mice were kept on a day/night cycle of 12 hours with free access to food and drink. […]
A strain of methicillin-sensitive Staphyloccocus aureus or <<MSSA>> (ATCC strain 29213) was cultured 16 hours at 37° C. in a tryptic soy medium (Grosseron, Saint Herblain, France). […] The bacterial concentration was systematically controlled by quantitative culture. […]
Mortality was assessed twice a day for 7 days. […] Capillary glycaemia was measured using a haemaglucotest (Boehringer Ingelheim France), Venous blood gasometry, reflecting shock intensity and quality of resuscitation, was measured on central venous blood taken from the right atrium.

Substance: monophosphoryl lipid A [MPLA]
- mortality in post-haemorrhagic SI model with MSSA pneumonia: significantly lowered mortality
